From patent US20060003942A1, “Combinations for HCV treatment” (priority 2003, published 2006)
Where two headings read alike, the source gives them in different places.

Legend:
[1] = test system: VX-950 metabolism in human hepatic microsomes; assay type: in vitro ADME; settings: 0.25 μM VX-950, 0.25 mg microsomal protein/mL, 2 minutes

Row | metabolized in human liver microsomes (1 h, 2 μM) | metabolized in human liver microsomes (1 h, 20 μM) | metabolized in human liver microsomes (2 h, 2 μM) | metabolized in human liver microsomes (2 h, 20 μM) | Structure (SMILES) | effect of ritonavir on VX-950 metabolism ([1]; ritonavir 10 to 100 μM) | effect of ritonavir on VX-950 metabolism ([1]; ritonavir up to 3 μM)
1 | 73% | 7% | 86% | 21% | CCC[C@H](NC(=O)[C@@H]1[C@H]2CCC[C@H]2CN1C(=O)[C@@H](NC(=O)[C@@H](NC(=O)c1cnccn1)C1CCCCC1)C(C)(C)C)C(=O)C(=O)NC1CC1 [VX-950] | – | –
2 | – | – | – | – | CC(C)c1nc(CN(C)C(=O)N[C@H](C(=O)N[C@@H](Cc2ccccc2)C[C@H](O)[C@H](Cc2ccccc2)NC(=O)OCc2cncs2)C(C)C)cs1 [ritonavir] | increase in VX-950 metabolism | inhibition of VX-950 metabolism
